Measurements taken from paper PMC9594487 (Cancer chemotherapy and pharmacology, 2017).

Legend:
[1] = single agent in a phase I trial; cited from earlier work
[2] = tested on: patients with advanced solid tumors; assay: Phase I 3+3 dose escalation: DLT, MTD and recommended dose; settings: in vivo, iv
[3] = background statement, no reference given, cited from earlier work

For Cilengitide, the “maximum tolerated dose (MTD), single agent” value [1] is given as “not reached”, the “recommended dose of cilengitide for subsequent study (recommended phase II dose)” value [2] is given as 2000 mg and the route of clearance [3] is given as “predominantly renally cleared”. For the same substance, the terminal half-life [3] was 3 to 5 h and the minimum washout ([3]; estimated) was 24 h.
